In patent US20250353891A1 (MEDIMMUNE LIMITED, priority 2022, published 2025):
pEC50: −log10 of the molar value. Starred links: 1 amine or outer side, 2 acyl side, 3 side chain; linkers in the order of their positions; H or OH if unused. Non-standard residues stand in square brackets, D forms with d. Residues, ends and D or L forms follow the SMILES beside them. Groups on a side chain read outwards from the residue. *: point of attachment. C20 diacid = O=C(O)CCCCCCCCCCCCCCCCCCC(=O)*; C18 diacid = O=C(O)CCCCCCCCCCCCCCCCC(=O)*; γGlu = O=C(O)[C@H](CCC(=O)[*:2])N[*:1]; αMeF = C[C@](N)(Cc1ccccc1)C(=O)O; AEEA = NCCOCCOCC(=O)O; Aib = CC(C)(N)C(=O)O

Tests used:
[1] = target: human GLP-1 receptor (hGLP-1R) (Homo sapiens, UniProt P43220); test: cAMP production (HTRF) in CHO cells expressing hGLP-1R; format: cell-based; parameters: expressed in transfected cells; settings: for pEC50: Table 6, peptides modified at position 17, cAMP in CHO hGLP-1R cells, geometric mean, read-out: hGLP-1R EC50; for % Relative Potency Ratio: Table 6, % GLP-1R activity relative to GLP-1 / % GlucR activity relative to glucagon
Chain of human GLP-1 receptor (hGLP-1R) (P43220 24-463): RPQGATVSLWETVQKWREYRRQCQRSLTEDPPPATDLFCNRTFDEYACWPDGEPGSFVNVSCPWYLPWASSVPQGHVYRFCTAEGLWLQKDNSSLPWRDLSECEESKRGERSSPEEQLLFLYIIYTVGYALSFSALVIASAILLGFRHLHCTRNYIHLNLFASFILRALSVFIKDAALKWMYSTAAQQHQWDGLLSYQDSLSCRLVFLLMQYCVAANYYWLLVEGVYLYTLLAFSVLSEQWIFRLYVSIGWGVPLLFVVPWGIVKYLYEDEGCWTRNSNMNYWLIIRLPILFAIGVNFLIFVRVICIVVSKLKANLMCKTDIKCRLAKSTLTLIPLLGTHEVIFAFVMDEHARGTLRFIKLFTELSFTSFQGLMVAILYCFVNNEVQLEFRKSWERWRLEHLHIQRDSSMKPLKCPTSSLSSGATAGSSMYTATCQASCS
Summary of the method: (§1)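 Cells were resuspended in assay buffer at batch-optimized density, typically 1×10^5 cells/mL for hGLP-1R and 2×10^5 cells/mL for hGCGR. After 30 min incubation at room temperature with compound, cAMP was measured by two-step HTRF. EC50 values came from 4-parameter logistic fits of % Delta F.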

[2] = target: human glucagon receptor (hGCGR) (Homo sapiens, UniProt P47871); test: cAMP production (HTRF) in CHO cells expressing hGCGR; format: cell-based; parameters: expressed in transfected cells; settings: Table 6, peptides modified at position 17; cAMP in CHO hGCGR cells; geometric mean; read-out: hGluc-R EC50
Chain of human glucagon receptor (hGCGR) (P47871 26-477): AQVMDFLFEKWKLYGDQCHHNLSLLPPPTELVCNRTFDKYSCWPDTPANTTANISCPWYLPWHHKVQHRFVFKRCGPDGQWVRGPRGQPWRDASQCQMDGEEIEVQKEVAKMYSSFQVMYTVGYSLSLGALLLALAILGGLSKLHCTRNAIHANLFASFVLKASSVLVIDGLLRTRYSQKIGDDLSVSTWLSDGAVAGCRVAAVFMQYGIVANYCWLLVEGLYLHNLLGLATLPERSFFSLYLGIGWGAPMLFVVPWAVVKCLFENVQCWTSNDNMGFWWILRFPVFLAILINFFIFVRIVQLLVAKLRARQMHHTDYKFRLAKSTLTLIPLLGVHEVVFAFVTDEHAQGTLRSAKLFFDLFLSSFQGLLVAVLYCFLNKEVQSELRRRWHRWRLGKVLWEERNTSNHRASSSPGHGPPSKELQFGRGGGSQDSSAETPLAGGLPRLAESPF
Summary of the method: as §1

SMILES	pEC50 [1]	% Relative Potency Ratio [1]	pEC50 [2]
CC(C)C[C@H](NC(=O)[C@H](Cc1c[nH]c2ccccc12)NC(=O)[C@H](CCCNC(=N)N)NC(=O)[C@@H](NC(=O)[C@H](Cc1ccccc1)NC(=O)[C@H](CC(=O)O)NC(=O)[C@H](CCC(N)=O)NC(=O)[C@H](C)NC(=O)[C@H](CCCNC(=N)N)NC(=O)[C@H](CCCCNC(=O)COCCOCCNC(=O)COCCOCCNC(=O)CC[C@H](NC(=O)CCCCCCCCCCCCCCCCCCC(=O)O)C(=O)O)NC(=O)[C@H](CCCCN)NC(=O)[C@H](CC(=O)O)NC(=O)[C@H](CC(C)C)NC(=O)[C@](C)(Cc1ccccc1)NC(=O)[C@H](CCCCN)NC(=O)[C@H](CO)NC(=O)[C@@H](NC(=O)[C@H](CC(=O)O)NC(=O)[C@H](CO)NC(=O)[C@@H](NC(=O)[C@H](Cc1ccccc1)NC(=O)[C@@H](NC(=O)CNC(=O)[C@H](CCC(N)=O)NC(=O)C(C)(C)NC(=O)[C@@H](N)Cc1c[nH]cn1)[C@@H](C)O)[C@@H](C)O)C(C)C)C(C)C)C(=O)N[C@@H](CC(C)C)C(=O)NC(C)(C)C(=O)N[C@@H](CCC(=O)O)C(N)=O [Peptide 441] (H-H[Aib]QGTFTSDVSK[αMeF]LDKK([AEEA-AEEA-γGlu-C20 diacid])RAQDFVRWLL[Aib]E-NH2; N-terminus assumed)	10.20	2.3	10.14
CC(C)C[C@H](NC(=O)[C@H](Cc1c[nH]c2ccccc12)NC(=O)[C@H](CCCNC(=N)N)NC(=O)[C@@H](NC(=O)[C@H](Cc1ccccc1)NC(=O)[C@H](CC(=O)O)NC(=O)[C@H](CCC(N)=O)NC(=O)[C@H](C)NC(=O)[C@H](CCCNC(=N)N)NC(=O)[C@H](CCCCNC(=O)COCCOCCNC(=O)COCCOCCNC(=O)CC[C@H](NC(=O)CCCCCCCCCCCCCCCCC(=O)O)C(=O)O)NC(=O)[C@H](CCCCN)NC(=O)[C@H](CC(=O)O)NC(=O)[C@H](CC(C)C)NC(=O)[C@](C)(Cc1ccccc1)NC(=O)[C@H](CCCCN)NC(=O)[C@H](CO)NC(=O)[C@@H](NC(=O)[C@H](CC(=O)O)NC(=O)[C@H](CO)NC(=O)[C@@H](NC(=O)[C@H](Cc1ccccc1)NC(=O)[C@@H](NC(=O)CNC(=O)[C@H](CCC(N)=O)NC(=O)C(C)(C)NC(=O)[C@@H](N)Cc1c[nH]cn1)[C@@H](C)O)[C@@H](C)O)C(C)C)C(C)C)C(=O)N[C@@H](CC(C)C)C(=O)N[C@@H](CCC(=O)O)C(=O)NC(C)(C)C(=O)NCC(N)=O [Peptide 442] (H-H[Aib]QGTFTSDVSK[αMeF]LDKK([AEEA-AEEA-γGlu-C18 diacid])RAQDFVRWLLE[Aib]G-NH2; N-terminus assumed)	10.72	3.7	10.45
CC(C)C[C@H](NC(=O)[C@H](Cc1c[nH]c2ccccc12)NC(=O)[C@H](CCCNC(=N)N)NC(=O)[C@@H](NC(=O)[C@H](Cc1ccccc1)NC(=O)[C@H](CC(=O)O)NC(=O)[C@H](CCCNC(=N)N)NC(=O)[C@H](C)NC(=O)[C@H](CCCNC(=N)N)NC(=O)[C@H](CCCCNC(=O)COCCOCCNC(=O)COCCOCCNC(=O)CC[C@H](NC(=O)CCCCCCCCCCCCCCCCC(=O)O)C(=O)O)NC(=O)[C@H](CCCCN)NC(=O)[C@H](CC(=O)O)NC(=O)[C@H](CC(C)C)NC(=O)[C@](C)(Cc1ccccc1)NC(=O)[C@H](CCCCN)NC(=O)[C@H](CO)NC(=O)[C@@H](NC(=O)[C@H](CC(=O)O)NC(=O)[C@H](CO)NC(=O)[C@@H](NC(=O)[C@H](Cc1ccccc1)NC(=O)[C@@H](NC(=O)CNC(=O)[C@H](CCC(N)=O)NC(=O)C(C)(C)NC(=O)[C@@H](N)Cc1c[nH]cn1)[C@@H](C)O)[C@@H](C)O)C(C)C)C(C)C)C(=O)N[C@@H](CC(C)C)C(=O)NC(C)(C)C(=O)N[C@@H](CCC(=O)O)C(N)=O [Peptide 443] (H-H[Aib]QGTFTSDVSK[αMeF]LDKK([AEEA-AEEA-γGlu-C18 diacid])RARDFVRWLL[Aib]E-NH2; N-terminus assumed)	10.69	2.2	10.65
